Assay [1] has as its system IL-12 p70 production by microglia. The experiment in a line: IL-12 p70 production by LPS + IFNγ-stimulated microglia (ELISA). It counts as cell-based, C57BL/6J mice. The note with it: for IL-12 p70: mean ± SD (n = 9); for IL-12 production by microglia: LPS and IFNγ stimulation, graded doses (FIG. 1, FIG. 9A). The protocol:
Samples used for the experiments were prepared as described below. […] The cultures were maintained with Dulbecco's modified Eagle's minimum essential medium supplemented with 10% fetal calf serum, 5 μg/ml bovine insulin, and 0.2% glucose.
The supernatant was then collected and stored at −70° C. until assessed. From the remaining cells, total RNA was extracted, following the guanidinium thiocyanate method (RNeasy Mini Kit;QIAGEN). The cDNA encoding mouse TNFα, IL-1β, IL-6, iNOS (inducible nitric oxide synthetase), and IL-12, was generated by reverse transcription-polymerase chain reaction (RT-PCR) using Superscript II (INVITROGEN), and Ampli Taq DNA polymerase (APPLIED BIOSYSTEMS) with the specific primers shown in Table 1.
Cytokine production was measured with an ELISA kit specific for IL1, IL-6, TNFα, and IL-12 p70 (TECHNE Corp. MN). NO production was determined by Griess reaction. Briefly, a 50 μl aliquot of supernatants were mixed with an equal volume of Griess reagent (0.1% N-ethylenediarnine dihydrochloride, 1% sulfanilamide, and 2.5% phosphoric acid) and incubated for 15 minutes at room temperature, and the absorbance was read at 540 nm on a microtiter plate reader. Nitrite concentrations were calculated from a standard curve of NaNO2 (Yoshikawa M, Suzumura A, Tamaru T, et al. “Effects of phosphodiesterase inhibitors on microglia.” Multiple Scler 1999;5: 126-133, the contents of which are hereby incorporated by reference in their entirety).
In general terms: In an ELISA, binding on a coated surface is turned into a signal by an enzyme label.

In assay [2] the test system is peripheral blood mononuclear cells. To be noted: with IFNβ, synergistically; PBMC from patients with active MS; clinical trial; cited from earlier work.
Setting [3] is: microglia + LPS (1 μg/mL) + IFNγ (1 ng/mL) + IFNβ 10^2 U/mL, agent 1 μM.
Setting [4] is: microglia + LPS (1 μg/mL) + IFNγ (1 ng/mL) + IFNβ 10^2 U/mL, agent 10 μM.
[5] abbreviates: microglia + LPS (1 μg/mL) + IFNγ (1 ng/mL) + IFNβ 10^2 U/mL, agent 100 μM, detection limit 7 pg/mL.
The mark [6] stands for this setting: microglia + LPS (1 μg/mL) + IFNγ (1 ng/mL), agent 1 μM, stimulated control 118 ± 13.
Where [7] appears, read: microglia + LPS (1 μg/mL) + IFNγ (1 ng/mL), agent 10 μM, stimulated control 118 ± 13.
[8] abbreviates: microglia + LPS (1 μg/mL) + IFNγ (1 ng/mL), agent 100 μM, detection limit 7 pg/mL.

Turning to `CC(C)C(=O)c1c(C(C)C)nn2ccccc12` [Ibudilast, ibudilast], the “IL-12 p70” value is given as 48 ± 11 pg/mL in assay [1] (setting [3]); 43 ± 6 pg/mL in assay [1] (setting [4]); <7^a** pg/mL in assay [1] (setting [5]); 53 ± 4 pg/mL in assay [1] (setting [6]); 48 ± 5 pg/mL in assay [1] (setting [7]); <7^a* pg/mL in assay [1] (setting [8]).

As for `Cc1[nH]c(=O)c(C#N)cc1-c1ccc2nccn2c1` [Orprinone, orprinone], the “IL-12 production by microglia” value in assay [1] is “dose-dependently suppressed”. Also, the “IL-12 p70” value in assay [1] (setting [3]) came out at 67 ± 14 pg/mL; in assay [1] (setting [4]), 44 ± 7 pg/mL; in assay [1] (setting [5]) it was 40 ± 9 pg/mL; in assay [1] (setting [6]), 107 ± 20 pg/mL; in assay [1] (setting [7]), 88 ± 14 pg/mL; in assay [1] (setting [8]), 32 ± 11 pg/mL.

`CCCC(=O)Nc1ncnc2c1ncn2[C@@H]1O[C@@H]2COP(=O)(O)O[C@H]2[C@H]1OC(=O)CCC` [dbcAMP, dibutyryl cAMP]: the “IL-12 production by microglia” value in assay [1] is “dose-dependently suppressed”. The “IL-12 p70” value in assay [1] (setting [6]) turned out to be 122 ± 23 pg/mL; in assay [1] (setting [7]) it was 59 ± 18 pg/mL; in assay [1] (setting [8]) it was 23 ± 8 pg/mL.

In the case of `C=C[C@@]1(C)CC(=O)[C@]2(O)[C@@]3(C)[C@@H](O)CCC(C)(C)[C@@H]3[C@H](O)[C@H](OC(C)=O)[C@@]2(C)O1` [forskoline, forskolin], the “IL-12 p70” value is on record as 47 ± 10 pg/mL in assay [1] (setting [3]), 34 ± 6 pg/mL in assay [1] (setting [4]) and <7^a** pg/mL in assay [1] (setting [5]).

In the case of `CC(=O)CCCCn1c(=O)c2c(ncn2C)n(C)c1=O` [pentoxifylline], in assay [2], the “anti-inflammatory cytokine IL-10” value was “up-regulate” and the “production of inflammatory cytokines” value was “reduce”.

The values are drawn from patent US20060093578A1, “Method and composition for treating multiple sclerosis” (Kyorin Pharmaceutical Co., Ltd., priority 2004, published 2006).
